The record followed here is PubChem BioAssay (NCI).

SMILES strings stand for the structures. Several values for one entry are separate records, joined by “and”; a condition that tells them apart may be missing. Equal entries are not always repeated.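 Assay format: 96-well plates, 48-hour exposure. GI50 marks 50% less growth. TGI denotes the concentration required for complete inhibition of growth.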

Common to all, as to test: DTP human tumour cell line panel, 48 h
The test system of test [1] is MCF7 breast.
The subject of test [2] is CAKI-1 renal.
Test [3] concerns SK-OV-3 ovarian.
Test [4] relates to KM20L2 colon.
For test [5], the system named is DMS 273 small cell lung.
Test [6] has as its system HOP-18 NSCLC.
Test [7] deals with M19-MEL melanoma.
Test [8] deals with DLD-1 colon.
For test [9], the system named is DMS 114 small cell lung.
In test [10] the test system is SNB-78 CNS.
Test [11] relates to LXFL 529 NSCLC.

Turning to `CCOC(=O)c1nc2ccccc2nc1Nc1ccc(OC)cc1`, the figures for the TGI in test [1] and in [2] were greater than 100 µM and 56.6 µM, respectively.
In the case of `CC(C)CC(NP(=O)(O)OC1OC(C)C(O)C(O)C1O)C(=O)NC(Cc1c[nH]c2ccccc12)C(=O)O` (configuration not stated), the TGI in test [1], in test [3] and in test [2] was greater than 100 µM each time.
Take `O=c1cc(NNc2ccccc2F)[nH]c(=O)[nH]1`: the TGI (usually the concentration giving total growth inhibition) in test [1] is 21.2 µM; in [3], 60.8 µM; in test [2], 25.7 µM.
On the same counts, the results for `COc1cc(C2c3cc4c(cc3OC(NCCc3ccccc3)C2C)OCO4)cc(OC)c1OC` (configuration not stated) are 15.4 µM, greater than 100 µM and 0.939 µM.
On the same counts, the results for `CN=C(N)N=Nc1c(O)[nH]c2ccccc12` are greater than 100 µM, greater than 100 µM and greater than 100 µM.
Turning to `CCOC(=O)c1sc2c(c1O)c(=O)n(-c1ccccc1)c(=S)n2-c1ccccc1`, the TGI in test [1] is greater than 100 µM.
For the compound `CCCCCCSCC/C(C)=N\OC`, the TGI in test [1], in [3] and in [2] was greater than 100 µM in each case.
On to `CN(C)/C=N\c1nncc2[nH]cnc12`, for which the TGI in test [1], in test [3] and in test [2] was greater than 100 µM each time.
Take `CSc1nn(C)cc2nc(C)nc1-2`: the TGI in test [1] and in test [2] was greater than 100 µM throughout.
Turning to `O=C(O)C1CCCCN1C(=O)Cc1c[nH]c2ccccc12` (configuration not stated), the TGI in [1], in [3] and in test [2] was greater than 100 µM in each case.
As for `CCCCCCNC(=S)N/N=C(\C)c1ccccn1`, the values for the TGI in test [1], in test [3] and in [2] were 19 µM, 21.6 µM and 40.4 µM, respectively.
The like results for `O=C1NC(=S)NC(=O)C1=Cc1ccc(-c2ccccc2)cc1` were, in that order, greater than 100 µM, greater than 100 µM and greater than 100 µM.
On to `O=C(Cn1c(=O)oc2ccc(C(=O)c3ccc(F)cc3)cc21)c1ccccc1`, for which the total growth inhibition concentration (TGI) in [1], in test [3] and in [2] was greater than 100 µM each time.
`COc1cc(C2c3[nH]c4ccccc4c3[C@@H](Nc3ccc(C#N)cc3)[C@H]3COC(=O)N23)cc(OC)c1O` (some centres not stated): the TGI in test [1] was determined as 2.7 µM; in test [3], 1.04 µM; in [2] it was 1.78 µM.
As to `CCOC(=O)c1cnc2c(ccc3[nH]cccc32)c1=O`, the TGI in test [4], in [5], in [6], in test [7], in [8] and in test [9] was greater than 100 µM in each case. In addition, the TGI in test [10], in test [3] and in test [11] was greater than 100 µM each time.
`CCOC(=O)CCC(NC(=O)C(N)c1ccc([N+](=O)[O-])cc1)C(=O)NC(CCC(=O)OCC)C(=O)OCC` (configuration not stated) registered a TGI in test [1] greater than 100 µM.
`Cc1ccc(NC(=O)CSc2nnc(Cc3ccccc3)o2)cc1`: the TGI in test [4], in test [5], in [6], in test [7], in test [8] and in [9] was greater than 100 µM each time. Moreover, the TGI in test [10], in test [3], in [2] and in test [11] was greater than 100 µM each time.
With `COc1cc(C2SCC(=O)N2c2ccc(NC(C)=O)cc2)cc(OC)c1OC` (configuration not stated), the total growth inhibition concentration (TGI) in [1], in [3] and in [2] was greater than 100 µM throughout.
For `CN1N=C(c2ccccc2)C(C(c2ccccc2[N+](=O)[O-])C2C(=O)N(C)N=C2c2ccccc2)C1=O` (configuration not stated), the TGI in test [1], in [3] and in test [2] was greater than 100 µM each time.
For `NS(=O)(=O)c1nnc(NC(=O)c2cccc([N+](=O)[O-])c2)s1`, the TGI in test [1], in [3] and in [2] was greater than 100 µM throughout.
For the compound `CCCCC(/C=C\COC1CCCCO1)=C/C(=O)OCC` (configuration not stated), the TGI in test [1], in [3] and in test [2] was greater than 100 µM each time.
On to `CC1OC(OC2C(OC(=O)[C@]34CCC(C)(C)C[C@H]3C3=CC[C@@H]5[C@@]6(C)CC[C@H](OC7OC(CO)C(O)C(O)C7OC7OC(CO)C(O)C(O)C7O)C(C)(C)[C@@H]6CC[C@@]5(C)[C@]3(C)CC4)OCC(O)C2O)C(O)C(O)C1OC1OCC(O)C(OC2OCC(O)C(O)C2O)C1O` (some centres not stated), for which the GI50 (in general, the concentration giving 50% growth inhibition) in test [1] is 3760 nM and 1870 nM. The TGI in [1] is 11 µM and 7.69 µM; in test [3], 25.6 µM and 26.5 µM; in test [2], 15.8 µM and 15.3 µM.
For the compound `CSC1=C(C(=O)Nc2ccc(C)cc2)C(N)=NC1=O`, the TGI in [1], in test [3] and in test [2] was greater than 100 µM each time.
For `NC(N)=NS(=O)(=O)c1ccc(NNC(=O)c2cccc3c(=O)c4ccccc4[nH]c23)cc1`, the TGI in test [1] stood at 34.3 µM; in test [3], 89.2 µM; in test [2], 94.6 µM.
The like results for `CCOC(=O)[C@@H]1ON2O[C@H](OC3CCCCC3c3ccccc3)C[C@H]3OC(=O)[C@@H]1C32` (some centres not stated) were, in that order, greater than 100 µM, greater than 100 µM and greater than 100 µM.
On to `CCc1cc2c(c3c1CCCC3)CC1(Cc3ccc(C(=O)OC)cc3C1)C2` (configuration not stated), for which the TGI in test [1] and in test [3] was greater than 100 µM in each case.
For `CC(C)CCC[C@@H](C)C1CCC2[C@@H]3CCC4C[C@@H](NS(C)(=O)=O)CC[C@]4(C)C3CC[C@@]21C` (some centres not stated), the TGI in [1], in test [3] and in [2] was greater than 100 µM throughout.
Turning to `C[C@@H]1CCC2C(C)(C)C(/C=C\C=O)C3(C)OC213` (some centres not stated), the TGI in test [1], in test [3] and in test [2] was greater than 100 µM in each case.
Turning to `Cc1cc(S(=O)(=O)Nc2n[nH]c(Nc3ccc4ccccc4c3)n2)c(S)cc1Cl`, the TGI in test [1] is greater than 100 µM; in test [3], greater than 100 µM; in [2], 91 µM.
As for `COc1cc(C(c2cccc3ccccc23)N2C(=O)CCC2C(=O)O)cc(OC)c1OC` (configuration not stated), the TGI in [1], in test [3] and in test [2] was greater than 100 µM throughout.
For `CCOC(=O)N(C)C(=C(F)F)C(F)(F)F`, the TGI in test [1] and in [3] was greater than 100 µM in each case.
For the compound `C[C@@]1(Cc2ccccc2)C(=O)N2[C@@H](CO)C(c3ccccc3)O[C@]2(C)c2ccccc21` (some centres not stated), the TGI in test [4], in test [5], in test [7], in [8], in test [9] and in [10] was greater than 100 µM each time. Besides, the TGI in test [3], in [2] and in test [11] was greater than 100 µM each time.
As to `Cc1nc(C)c(N2CCN(C(=O)O)CC2)c(=O)[nH]1`, the TGI in test [1], in [3] and in [2] was greater than 100 µM in each case.
Take `CCN(CC)c1ccc(C2Nc3ccc4ccccc4c3C3=C2C(=O)CCC3)cc1` (configuration not stated): the TGI in [1], in [3] and in test [2] was greater than 100 µM in each case.
For `CC12C(=C(C#N)C(=N)N1c1ccc(Cl)c(Cl)c1)C=C(O)CC2SCCS(=O)(=O)O` (configuration not stated), the TGI in test [4], in [5], in test [7], in test [8], in test [9] and in test [10] was greater than 100 µM each time. Moreover, the TGI in test [3], in test [2] and in [11] was greater than 100 µM in each case.
Take `CC(C)CC1c2[nH]c3ccccc3c2C[C@H]2C(=O)NC(CCCCNC(=O)OC(C)(C)C)C(=O)N12` (some centres not stated): the concentration for total growth inhibition (TGI) in test [1] and in test [2] was greater than 100 µM each time.
For the compound `O=[N+]([O-])c1ccc(C2=NOC(c3ccc(Cl)cc3)N2C23CC4CC(CC(C4)C2)C3)cc1` (configuration not stated), the TGI in test [1], in test [3] and in test [2] was greater than 100 µM throughout.
As for `N/C(=N\N=C\c1cc(I)cc(I)c1O)NO`, the values for the TGI in test [1], in test [3] and in [2] were 74.7 µM, greater than 100 µM and greater than 100 µM, respectively.
Turning to `N#Cc1ncn(CCO)c1N`, the TGI in test [1], in [3] and in test [2] was greater than 100 µM each time.
For `CC(C)[Si]1(C(C)C)OCC2OC(n3c(C(=O)c4ccccc4)cc(=O)[nH]c3=O)CC2O[Si](C(C)C)(C(C)C)O1` (configuration not stated), the TGI is 8.14 µM in test [1], 27.2 µM in [3] and 17.9 µM in test [2].
As to `OC(Cc1ccc2ccccc2n1)(C(F)(F)Cl)C(F)(F)Cl`, the TGI in test [1], in test [3] and in [2] was greater than 10 µM throughout.
For `COc1cc(/C=N/c2ccccn2)cc(OC)c1OC`, the TGI in [1], in test [3] and in test [2] was greater than 100 µM each time.
For the compound `COC(=O)n1c(C)c(C=O)c2ccc(OC)cc21`, the TGI in test [1] is 88.2 µM; in [3], greater than 100 µM; in test [2], 87.9 µM.
As for `Oc1cnc2c(O)cccc2c1`, the TGI in test [1] and in test [3] was greater than 100 µM each time.
As for `COc1cccc(C=C2N=C(c3ccccc3)N(n3c(-c4ccccc4)nc4ccccc4c3=O)C2=O)c1`, the total growth inhibition concentration (TGI) in test [1], in test [3] and in test [2] was greater than 100 µM each time.
For the compound `COc1ccc(NC(=O)CC(=O)NNC(Sc2ccccc2)c2cc(N=Nc3ccc(Br)cc3)ccc2O)cc1` (configuration not stated), the TGI in [1], in test [3] and in test [2] was greater than 10 µM in each case.
As to `CC1(C)S[C@H](CN)N[C@H]1C(=O)OC(c1ccccc1)c1ccccc1`, the TGI in test [1], in [3] and in test [2] was greater than 100 µM throughout.
As to `COC1CC(C)([N+](=O)[O-])C(O)C(C)O1` (configuration not stated), the TGI in [1], in test [3] and in test [2] was greater than 100 µM in each case.
Take `NC(=O)C(=CNC(=S)Nc1ccc(S(=O)(=O)Nc2ccccn2)cc1)C(N)=O`: the TGI in test [1], in test [3] and in test [2] was greater than 100 µM in each case.
Regarding `O=C(c1ccccc1)c1ccc2c(c1)nc1n2C(c2c(F)cccc2F)SC1` (configuration not stated), the TGI in [1], in test [3] and in [2] was greater than 100 µM throughout.
Consider `CCN(CC)c1ccc2cc(C(=O)NCc3ccccc3)c(=N)oc2c1`, for which the TGI in [1], in test [3] and in test [2] was greater than 100 µM each time.
Turning to `CCO/C(O)=C(/C(=N)N1CCCC1)C(=O)Nc1cccc(Cl)c1`, the TGI in [1], in [3] and in [2] was greater than 100 µM throughout.
For the compound `COC(=O)c1nn2ccc3ccccc3c2c1C(=O)OC`, the TGI in test [1], in test [3] and in test [2] was greater than 100 µM each time.
Take `CC(=O)Oc1c(OC(C)C)c(C)c(O[Si](C(C)C)(C(C)C)C(C)C)c2[nH]c3ccccc3c12`: the TGI in [1], in test [3] and in test [2] was greater than 100 µM throughout.
Turning to `Nc1ncnc2c1ncn2-c1ccc([N+](=O)[O-])cn1`, the TGI in test [1], in test [3] and in [2] was greater than 100 µM throughout.
With `CCOC(=O)c1nc2ccc(C(F)(F)F)cc2nc1Nc1ccc(F)cc1`, the TGI in test [1], in test [3] and in [2] was greater than 100 µM in each case.
Take `NC(=O)c1nnsc1NN=O`: the TGI in [1], in test [3] and in [2] was greater than 100 µM throughout.
Turning to `CCN(CC)C(=S)SC1C(=O)NC(=O)NC1=O`, the TGI in test [1], in [3] and in [2] was greater than 100 µM in each case.
With `CCOC(=O)c1nc2ccccc2nc1Oc1ccc(C#N)cc1`, the total growth inhibition concentration (TGI) in [1] and in [3] was greater than 100 µM in each case.
